This is an account of results in the supplement of paper PMC10307832.

Compound in test [1]: CC(C)(C)c1cc(NC(=O)Nc2ccc(-c3cn4c(n3)sc3cc(OCCN5CCOCC5)ccc34)cc2)no1 [Quizartinib]
Briefly: relative viability (nuclei count vs DMSO), 5 days (fraction); higher = more cells survive. The method, boiled down: (§1)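 Following overnight incubation at 37 °C, lung cancer cell lines in 1536-well plates were pinned with five library-drug doses (not always all listed) in √10 steps on vehicle-anchored plates. The cells then spent 5 days without medium change before a combined fix, permeabilisation and Hoechst stain, 4× imaging and MetaXpress nuclear counts. Viability is the treated-to-vehicle ratio of nuclei, taken as the median across plates. Only plates with control CV below 25% and at least one doubling passed.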

Compound in test [2]: COCC[n+]1c2c(n(Cc3cnccn3)c1C)C(=O)c1ccccc1C2=O [YM155]
Described as above. The method, boiled down:
as §1

Take SK-LU-1: the relative viability in test [1] (0.001 µM) amounted to 0.88; in test [1] (0.003162 µM), 0.861; in test [1] (0.01 µM), 1.11; in test [1] (0.03162 µM), 0.999; in test [1] (0.1 µM), 1.06; in test [2] (0.002 µM), 0.86. Also, the relative viability amounted to 1.06 in test [2] (0.006325 µM), 1.07 in test [2] (0.02 µM) and 0.91 in test [2] (0.06325 µM).

For the cell line SK-MES-1, the relative viability in test [1] (0.001 µM) worked out at 0.944; in test [1] (0.003162 µM), 0.96; in test [1] (0.01 µM) it was 1.09; in test [1] (0.03162 µM) it was 0.732; in test [1] (0.1 µM) it was 0.924; in test [2] (0.002 µM), 0.956. Moreover, the figures for the relative viability in test [2] (0.006325 µM), in test [2] (0.02 µM) and in test [2] (0.06325 µM) were 1.02, 0.942 and 0.692, respectively.

Take SW 900: the relative viability came out at 0.823 in test [1] (0.001 µM); 1.12 in test [1] (0.003162 µM); 0.745 in test [1] (0.01 µM); 0.803 in test [1] (0.03162 µM); 0.994 in test [1] (0.1 µM); 0.71 in test [2] (0.002 µM). In addition, the figures for the relative viability in test [2] (0.006325 µM), in test [2] (0.02 µM) and in test [2] (0.06325 µM) were 0.828, 0.869 and 0.729, respectively.

In the case of SW 1573, the relative viability is 0.87 in test [1] (0.001 µM); 0.971 in test [1] (0.003162 µM); 1.09 in test [1] (0.01 µM); 0.481 in test [1] (0.03162 µM); 1.08 in test [1] (0.1 µM); 1.02 in test [2] (0.002 µM). In addition, the relative viability was found to be 0.939 in test [2] (0.006325 µM), 0.803 in test [2] (0.02 µM) and 0.394 in test [2] (0.06325 µM).

Consider UMC-11, for which the relative viability in test [1] (0.001 µM) worked out at 0.723; in test [1] (0.003162 µM), 0.945; in test [1] (0.01 µM), 0.983; in test [1] (0.03162 µM), 0.966; in test [1] (0.1 µM), 0.988; in test [2] (0.002 µM), 0.889. The relative viability was 0.998 in test [2] (0.006325 µM), 1.04 in test [2] (0.02 µM) and 0.959 in test [2] (0.06325 µM).
